Numbers after ± are expanded uncertainties.
Conditions: Crystal; DTA

## CCN1CCN(C(=O)N[C@H](C(=O)N[C@H]2C(=O)N3C(C(=O)[O-])=C(CSc4nnnn4C)CS[C@@H]23)c2ccc(O)cc2)C(=O)C1=O.[Na+]
  Normal melting temperature: 180.00 ± 1.1 °C
